Counter-ions that a name gives are not always drawn.

In assay [1] the test system is phospho(Ser63)-c-jun in HK-2 cells. Nature of the assay: Cell-Based Assay for JNK Inhibitors (in-cell ELISA, phospho(Ser63)-c-jun after TNFα). Conditions: HK-2 cells (human proximal tubule cells), 60 minutes compound, then 10 ng/mL TNFα for 30 minutes. On the procedure: Cell-Based Assay for JNK Inhibitors
The cell-based assay employed the in-cell ELISA method to determine the ability of compounds to prevent the generation of phospho(Ser63)-c-jun in HK-2 cells (human proximal tubule cells) in response to stimulation with tumor necrosis factor α (TNFα). In brief, for quantification of phospho(Ser63)-c-jun, the cells (in 96-well format) were fixed and permeablized then incubated sequentially with a rabbit anti-phospho-c-jun First Antibody specific for the presence of the phospho-Ser63 epitope and a donkey anti-rabbit IgG Second Antibody linked to horseradish peroxidase (HRP) for colorimetric quantitation of binding. […] Blank wells received no TNFα stimulation or compound. Additional Control wells received TNFα stimulation, but no compound.
Stock cultures of HK-2 cells (ATCC, Manassas, Va.) were grown under a 5% CO2/[…] atmosphere at 37 degrees C. in Keratinocyte-SFM medium (KSFM, Invitrogen, Grand Island, N.Y.) containing 5 μg/L epidermal growth factor and 5 mg/L bovine pituitary extract (both supplied with the medium), additionally supplemented with 10% (v/v) fetal calf serum (FCS; Invitrogen, Grand Island, N.Y.) and 1% (v/v) antibiotic-antimycotic (ABAM: Sigma, St. Louis, Mo.). For assays, cells were seeded in collagen coated 96-well polystyrene plates (BD Biosciences, Franklin Lakes, N.J.) at a density of 40,000 cells/well and cultured for 24 h in the same medium (100 μL/well) followed by a further 16-24 h in 100 μL of similar medium, but without FCS. […] Plates were then allowed to stand at room temperature for 20 minutes before being washed with 200 μL/well of PBS. (Further steps were performed immediately or the plates were stored at 4 degrees C. and the assay completed the next day.) To each well was added 100 μL 1% (v/v) TritonX-100 (Sigma, St. Louis, Mo.) in PBS followed by 20 minutes standing at room temperature, washing with 200 μL/well PBS, the addition of 100 μL/well of Quenching buffer (1% (v/v) hydrogen peroxide (Sigma, St. Louis, Mo.) and 0.1% (w/v) sodium azide (Fisher Scientific, Fair Lawn, N.J.)) in PBS and a further 20 minutes at room temperature. Plates were then washed twice with 200 μL/well of 0.1% (v/v) Tween-20 (Teknova, Hollister, Calif.) in PBS before addition of 200 μL/well of 2% BSA/0.1% Tween-20 in PBS and a further 1 hour at room temperature. […] After a further one hour, rabbit anti-phospho-c-jun-Ser63 is added directly to the solution in the Blank wells resulting in 1:250 dilution of this antibody. Plates were then placed on a slowly rotating platform at 4 degrees C. overnight. Wells were then washed thrice with 200 μL/well PBS/0.1% Tween-20. After addition of the third wash, the plates were placed on a slowly rotating platform for 15 minutes at room temperature. The final PBS/Tween20 wash was then replaced with 100 μL/well of donkey anti-rabbit HRP-labeled Second Antibody (Jackson ImmunoResearch Laboratory, West Grove, Pa.) diluted 1:10,000 in Antibody Dilution Buffer and the plates placed on a slowly rotating platform for 1 hour at room temperature. Wells were then washed four times with 200 μL/well PBS/0.1% Tween-20, including slow rotation for 30 minutes for the third wash and 10 minutes for the final wash. The wells were then washed once with 200 μL PBS without Tween-20. […] Absorbance was determined at a 450 nm wavelength using a spectrophotometer (Molecular Devices SpectraMax 250).

The target of the next assay is JNK1 (Homo sapiens (Human), UniProt P45983). Briefly: In Vitro JNK1 Assay (TR-FRET, phosphorylation of GST-c-Jun). It is filed as biochemical. The following applies: 0.2 nM active JNK1 kinase, 26.7 nM GST-c-Jun, 2 μM ATP, 30 min at room temperature. An outline of the steps:
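GST-c-Jun (residues 1-79) phosphorylation by JNK1 in 50 mM HEPES pH 7.0, MgCl2, 1 mM DTT, 0.1 mM Na3VO4, 0.2 mg/mL BSA, 30 min at room temperature. Stopped with EDTA plus anti-phospho-c-Jun antibody and read by TR-FRET 1 hr later. IC50 from percent inhibition over 10 serial dilutions.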

Chain of JNK1 (P45983 whole entry, the tested form may be a part): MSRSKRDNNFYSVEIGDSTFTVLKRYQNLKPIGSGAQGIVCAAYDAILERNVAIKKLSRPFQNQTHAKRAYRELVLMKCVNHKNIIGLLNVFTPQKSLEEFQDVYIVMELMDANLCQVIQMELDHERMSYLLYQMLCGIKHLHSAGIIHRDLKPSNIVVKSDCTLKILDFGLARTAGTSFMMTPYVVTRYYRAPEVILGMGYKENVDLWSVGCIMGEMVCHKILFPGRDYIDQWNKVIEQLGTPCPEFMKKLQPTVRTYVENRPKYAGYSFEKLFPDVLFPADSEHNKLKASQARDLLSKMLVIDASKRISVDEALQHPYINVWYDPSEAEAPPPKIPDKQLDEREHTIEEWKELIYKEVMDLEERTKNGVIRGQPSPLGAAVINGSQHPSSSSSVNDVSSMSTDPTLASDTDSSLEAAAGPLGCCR

Compound `O=C(NCc1cn(-c2ccccc2)c2cc(Cl)ccc2c1=O)c1ccc2scnc2c1` [Example I-42, Benzothiazole-5-carboxylic acid (7-chloro-4-oxo-1-phenyl-1,4-dihydro-quinolin-3-ylmethyl)-amide] yielded a concentration giving a half-maximal response (EC50) in assay [1] of 25000 nM. It took 89 nM to reach half-maximal inhibition on JNK1 (IC50).

Regarding `O=C(NCc1cn(-c2ccccc2)c2cc(Cl)ccc2c1=O)c1ccc(N2CCOCC2)nc1` [Example I-40, N-(7-Chloro-4-oxo-1-phenyl-1,4-dihydro-quinolin-3-ylmethyl)-6-morpholin-4-yl-nicotinamide], it took 100000 nM to reach a half-maximal effect in assay [1] (EC50). Also, the 50% inhibitory concentration (IC50) on JNK1 came to 84 nM.

In assay [1], `Cn1cc(C(=O)NCc2cn(-c3ccccc3)c3cc(Cl)ccc3c2=O)cn1` [Example I-30, 1-Methyl-1H-pyrazole-4-carboxylic acid (7-chloro-4-oxo-1-phenyl-1,4-di hydro-quinolin-3-ylmethyl)-amide] showed a concentration giving a half-maximal response (EC50) of 42000 nM. Half-maximal inhibition at JNK1 (IC50) required 18 nM.

As to `COC(=O)c1c(CNC(=O)c2ccc(-c3noc(C)n3)cc2)c(=O)c2ccc(Cl)cc2n1-c1ccccc1` [Example I-125, 7-Chloro-3-{[4-(5-methyl-[1,2,4]oxadiazol-3-yl)-benzoylamino]-methyl}-4-oxo-1-phenyl-1,4-dihydro-quinoline-2-carboxylic acid methyl ester], the EC50 in assay [1] worked out at 18000 nM. On JNK1, half-maximal inhibition (IC50) required 22 nM.

In assay [1], `CN(C)C(=O)c1c(CNC(=O)c2ccc(N3CCC(CCO)CC3)nc2)c(=O)c2ccc(Cl)cc2n1-c1ccccc1` [Example I-25, 4-(2-Hydroxy-ethyl)-3,4,5,6-tetrahydro-2H-[1,2′]bipyridinyl-5′-carboxylic acid (7-chloro-2-dimethylcarbamoyl-4-oxo-1-phenyl-1,4-dihydro-quinolin-3-ylmethyl)-amide] gave an EC50 of 9600 nM. This compound had a half-inhibitory concentration (IC50) against JNK1 of 51 nM.

As to `COC(=O)c1c(CNC(=O)c2ccc(Cl)c(Cl)c2)c(=O)c2ccc(C(F)(F)F)nc2n1-c1ccccc1` [Example I-159, 3-[(3,4-Dichloro-benzoylamino)-methyl]-4-oxo-1-phenyl-7-trifluoromethyl-1,4-dihydro-[1,8]naphthyridine-2-carboxylic acid methyl ester], in assay [1], the EC50 was 43000 nM. The IC50 against JNK1 was 170 nM.

`CN(C)C(=O)c1c(CNC(=O)c2ccc3ncsc3c2)c(=O)c2ccc(Cl)cc2n1-c1ccccc1` [Example I-16, 3-{[(Benzothiazole-6-carbonyl)-amino]-methyl}-7-chloro-4-oxo-1-phenyl-1,4-dihydro-quinoline-2-carboxylic acid dimethylamide] displayed an EC50 in assay [1] of 35000 nM. On JNK1, inhibition was half-maximal at 66 nM (IC50).

Turning to `COC(=O)c1c(CNC(=O)c2ccc(-c3nnn(C)n3)cc2)c(=O)c2ccc(Cl)cc2n1-c1ccccc1` [Example I-129, 7-Chloro-3-{[4-(2-methyl-2H-tetrazol-5-yl)-benzoylamino]-methyl}-4-oxo-1-phenyl-1,4-dihydro-quinoline-2-carboxylic acid methyl ester], a half-maximal response in assay [1] (EC50) required 11000 nM. The compound also yielded an IC50 against JNK1 of 50 nM.

Turning to `COC(=O)c1c(CNC(=O)c2ccc(-c3csc(C)n3)cc2)c(=O)c2ccc(Cl)cc2n1-c1ccccc1` [Example I-127, 7-Chloro-3-{[4-(2-methyl-thiazol-4-yl)-benzoylamino]-methyl}-4-oxo-1-phenyl-1,4-dihydro-quinoline-2-carboxylic acid methyl ester], the response in assay [1] was half-maximal at 38000 nM (EC50). This compound registered an IC50 at JNK1 of 31 nM.

Compound `COC(=O)c1c(CNC(=O)c2ccc(-c3nnn(C)n3)cc2)c(=O)c2ccc(C(F)(F)F)nc2n1-c1ccccc1` [Example I-157, 3-{[4-(2-Methyl-2H-tetrazol-5-yl)-benzoylamino]-methyl}-4-oxo-1-phenyl-7-trifluoromethyl-1,4-dihydro-[1,8]-naphthyridine-2-carboxylic acid methyl ester] came in with an EC50 in assay [1] of 16000 nM. On JNK1, this compound showed a 50% inhibitory concentration (IC50) of 38 nM.

The compound `COc1ccc(C(=O)NCc2cn(-c3ccccc3)c3cc(Cl)ccc3c2=O)cc1OC` [Example I-57, N-(7-Chloro-4-oxo-1-phenyl-1,4-dihydro-quinolin-3-ylmethyl)-3,4-dimethoxy-benzamide] had a concentration giving a half-maximal response (EC50) in assay [1] of 26000 nM. Besides, the IC50 against JNK1 turned out to be 80 nM.

In turn, `COC(=O)c1c(CNC(=O)c2ccc(-c3nc(C)no3)cc2)c(=O)c2ccc(Cl)cc2n1-c1ccccc1` [Example I-126, 7-Chloro-3-{[4-(3-methyl-[1,2,4]oxadiazol-5-yl)-benzoylamino]-methyl}-4-oxo-1-phenyl-1,4-dihydro-quinoline-2-carboxylic acid methyl ester] returned an EC50 in assay [1] of 14000 nM. In addition, at JNK1, the 50% inhibitory concentration (IC50) is 29 nM.

Take `COC(=O)c1c(CNC(=O)c2ccc3scnc3c2)c(=O)c2ccc(Cl)cc2n1-c1ccccc1` [Example I-113, 3-{[(Benzothiazole-5-carbonyl)-amino]-methyl}-7-chloro-4-oxo-1-phenyl-1,4-dihydro-quinoline-2-carboxylic acid methyl ester]: the half-maximal effective concentration (EC50) in assay [1] turned out to be 2000 nM. This compound came in with a half-maximal inhibitory concentration (IC50) at JNK1 of 7 nM.

In assay [1], `CN(C)C(=O)c1c(CNC(=O)c2ccc(N3CCCCC3)nc2)c(=O)c2ccc(Cl)cc2n1-c1ccccc1` [Example I-28, 3,4,5,6-Tetrahydro-2H-[1,2′]bipyridinyl-5′-carboxylic acid (7-chloro-2-dimethylcarbamoyl-4-oxo-1-phenyl-1,4-dihydro-quinolin-3-ylmethyl)-amide trifluoroacetate salt] returned an EC50 of 9700 nM. In addition, on JNK1, the midpoint of inhibition, the IC50, lay at 91 nM.

In assay [1], `COC(=O)c1c(CNC(=O)C2CCN(C(=O)OC(C)(C)C)CC2)c(=O)c2ccc(Cl)cc2n1-c1ccccc1` [Example I-128, 3-{[(1-tert-Butoxycarbonyl-piperidine-4-carbonyl)-amino]-methyl}-7-chloro-4-oxo-1-phenyl-1,4-dihydro-quinoline-2-carboxylic acid methyl ester] gave a half-maximal effective concentration (EC50) of 100000 nM. Half-maximal inhibition against JNK1 (IC50) was put at 35 nM.

`COC(=O)c1c(CNC(=O)c2cnn(C)c2)c(=O)c2ccc(Cl)cc2n1-c1ccccc1` [Example I-121, 7-Chloro-3-{[(1-methyl-1H-pyrazole-4-carbonyl)-amino]-methyl}-4-oxo-1-phenyl-1,4-dihydro-quinoline-2-carboxylic acid methyl ester] showed an EC50 in assay [1] of 1800 nM. Further, the half-inhibitory concentration (IC50) on JNK1 worked out at 15 nM.

In turn, `COC(=O)c1c(CNC(=O)c2ccc(C(C)(C)C)cc2)c(=O)c2ccc(OC)cc2n1-c1ccccc1` [Example I-163, 3-[(4-tert-Butyl-benzoylamino)-methyl]-7-methoxy-4-oxo-1-phenyl-1,4-dihydro-quinoline-2-carboxylic acid methyl ester] displayed a half-maximal effective concentration (EC50) in assay [1] of 14000 nM. This compound registered a 50% inhibitory concentration (IC50) at JNK1 of 47 nM.

For `O=C(NCc1cn(-c2ccccc2)c2cc(Cl)ccc2c1=O)c1ccc(C(=O)NC2C3CC4CC2CC(O)(C4)C3)cc1` (centres unmarked) [Example I-99, N-(7-Chloro-4-oxo-1-phenyl-1,4-dihydro-quinolin-3-ylmethyl)-N′-(5-hydroxy-adamantan-2-yl)-terephthalamide], in assay [1], the concentration giving a half-maximal response (EC50) amounted to 6200 nM. For the same compound, half-maximal inhibition on JNK1 (IC50) was put at 52 nM.

Compound `O=C(NCc1cn(-c2ccccc2)c2cc(Cl)ccc2c1=O)c1ccc(N2CCN(CCO)CC2)nc1` [Example I-83, N-(7-Chloro-4-oxo-1-phenyl-1,4-dihydro-quinolin-3-ylmethyl)-6-[4-(2-hydroxy-ethyl)-piperazin-1-yl]-nicotinamide] displayed an EC50 in assay [1] of 12000 nM. At JNK1, this compound came in with a half-inhibitory concentration (IC50) of 81 nM.

The values are drawn from patent US8501732B2, “Aminomethyl quinolone compounds” (Hoffmann-La Roche Inc., priority 2011, dated 2013).
